Results published in publication PMC5516028, “Molecular tools for GABAA receptors: High affinity ligands for β1-containing subtypes” (Scientific Reports, 2017).

Legend:
α1β1 GABAA receptors = biological target: T1, α1β1 GABAA receptors (Rattus norvegicus, UniProt P15431+P62813); assay: Two electrode voltage clamp in Xenopus laevis oocytes, α1β1; assay type: cell-based; conditions: α1β1
T1 construct: expressed in transfected cells; host or cells: Xenopus laevis oocytes, mRNA injected
Description: (§1) cDNA’s of rat GABAA receptor subunits α1, α4, β1, β2, β3 and γ2S were cloned as described. cDNAs of the rat subunits α2, α3 and α5 were gifts from P. Malherbe, that of α6 and γ1 were gifts of P. Seeburg and that of δ was a gift of C. Czajkowski. The mutants were constructed using the Q5 Site-Directed Mutagenesis Kit (New England Biolabs) following manufacturer’s instruction. We used the wild-type rat β3-pCI vector as template and the primers […] and […] resulting in a substitution of amino acid N41 (AAC) to R (AGG). We used the wild-type rat β1-pCI vector as template and the primers […] and […] resulting in a substitution of amino acid R41 (CGG) to N (AAC). The mutated subunits were confirmed by sequencing.
(§2) In vitro transcription of mRNA was based on the cDNA expression vectors encoding for rat GABAA receptor subunits α1–6, β1-3, γ1,2, δ and the two β mutants (β1R41N and β3N41R)[40]. After linearizing the cDNA vectors with appropriate restriction endonucleases, the cDNA was purified and concentrated with the DNA Clean and Contentrator ^TM Kit (Zymoresearch, Catalog No. D4005). Capped transcripts of the purified cDNA were produced using the mMESSAGE mMACHINE® T7 transcription kit (Ambion, TX, USA) and polyadenylated using the Ambion PolyA tailing kit (Ambion). After transcription and polyadenylation the RNA was purified with the MEGAclear ^TM Kit (Ambion, Catalog No. AM1908). The final RNA concentration was measured on NanoDrop® ND-1000 and finally diluted and stored in diethylpyrocarbonate-treated water at −80 °C. For the microinjection, the RNA of αβ receptor combinations was mixed at 1:1 ratio (which leads to αβ receptors that consist of predominantly 3 beta and 2 alpha subunits[27]), for αkβlγm (k = 1–3, l = 1, 3, m = 1, 2) receptors at 1:1:5 ratio, for αkβ3γ2 (k = 4–6) and αkβlδ (k = 1, 4 and 6, l = 1, 3) receptor combinations at 3:1:5 ratio.
(§3) Mature female Xenopus laevis (Nasco, WI) were anesthetized in a bath of ice-cold 0.17% Tricain (Ethyl-m-aminobenzoate, Sigma, MO) before decapitation in full accordance with all rules of the Austrian animal protection law (see http://www.ris.bka.gv.at/Dokumente/BgblAuth/BGBLA_2012_I_114/BGBLA_2012_I_114.pdf) and the Austrian animal experiment by-laws (see https://www.ris.bka.gv.at/Dokumente/BgblAuth/BGBLA_2012_II_522/BGBLA_2012_II_522.pdf) which implement the European Directive 2010/63/EU (see http://eur-lex.europa.eu/LexUriServ/LexUriServ.do?uri=OJ:L:2010:276:0033:0079:en:PDF) into the Austrian law (all information accessed on July 27, 2016). The frog’s ovaries were transferred to ND96 medium (96 mM NaCl, 2 mM KCl, 1 mM MgCl2, 5 mM HEPES; pH 7.5). Stage 5–6 oocytes with the follicle cell layer around them were roughly dissected with forceps into packages of 10–15 cells and washed in Ca^2+-free ND96 medium. Cells were then digested with collagenase (type IA, Sigma, NO, 1 mg/mL ND96) at 18 °C shaking at 30 rpm for 30–60 minutes and gently defolliculated with the aid of a glass pipette with appropriate tip diameter and a platinum loop. Defolliculated cells were stored at 18 °C for at least 6 hours in ND96 solution containing penicillin G (10000 IU/100 mL) and streptomycin (10 mg/100 mL) in order to preselect and exclude damaged cells from further treatment. Healthy defolliculated oocytes were injected with an aqueous solution of mRNA. A total of 4.5 ng of mRNA per oocyte was injected with a Nanoject II (Drummond). After injection of mRNA, oocytes were incubated at 18 °C (ND96 + antibiotic) for 2–3 days for αβ receptors and for 3–4 days for αβγ or αβδ receptors before recording. When cells were measured at later time points, oocytes were stored at +4 °C instead of 18 °C.
(§4) For electrophysiological recordings, oocytes were placed on a nylon-grid in a bath of Ca^2+-containing NDE solution medium [96 mM NaCl, 5 mM HEPES-NaOH (pH 7.5), 2 mM KCl, 1 mM MgCl2, 1.8 mM CaCl2].

α1β2 GABAA receptors = biological target: T2, α1β2 GABAA receptors (Rattus norvegicus, UniProt P62813+P63138); assay: Two electrode voltage clamp in Xenopus laevis oocytes, α1β2; assay type: cell-based
T2 construct: expressed in transfected cells; host or cells: Xenopus laevis oocytes, mRNA injected
Description: as §1, §2, §3, §4

α1β3 GABAA receptors = biological target: T3, α1β3 GABAA receptors (Rattus norvegicus, UniProt P62813+P63079); assay: Two electrode voltage clamp in Xenopus laevis oocytes, α1β3; assay type: cell-based
T3 construct: expressed in transfected cells; host or cells: Xenopus laevis oocytes, mRNA injected
Description: as §1, §2, §3, §4

α1β1R41N GABAA receptors = biological target: T4, α1β1R41N GABAA receptors (Rattus norvegicus, UniProt P15431+P62813, R66N); assay: Two electrode voltage clamp in Xenopus laevis oocytes, mutant α1β1R41N; assay type: cell-based; conditions: read-out: % of control current at EC3-5
T4 construct: expressed in transfected cells; host or cells: Xenopus laevis oocytes, mRNA injected
Description: as §1, §2, §3, §4

α1β3N41R GABAA receptors = biological target: T5, α1β3N41R GABAA receptors (Rattus norvegicus, UniProt P62813+P63079, N66R); assay: Two electrode voltage clamp in Xenopus laevis oocytes, mutant α1β3N41R; assay type: cell-based; conditions: co-applied with GABA EC3-5, read-out: EC50 values for the mutated receptors
T5 construct: expressed in transfected cells; host or cells: Xenopus laevis oocytes, mRNA injected
Description: as §1, §2, §3, §4

[1] = biological target: benzodiazepine binding site, rat cerebellum membranes; assay: [3H]flunitrazepam saturation binding, rat cerebellar membranes; conditions: n = 3, read-out: equilibrium binding constant KD
Experimental: In brief, membrane pellets were incubated for 90 min at 4 °C in a total of 500 µL of a solution containing 50 mM Tris/citrate buffer, pH = 7.1, 150 mM NaCl and 2 nM [^3H]flunitrazepam in the absence or presence of either 5 µM diazepam (to determine unspecific binding) or various concentrations of receptor ligands (dissolved in DMSO, final DMSO-concentration 0.5%). Membranes were filtered through Whatman GF/B filters and washed twice with 4 mL of ice-cold 50 mM Tris/citrate buffer. Filters were transferred to scintillation vials and subjected to scintillation counting after the addition of 3 mL Rotiszint Eco plus liquid scintillation cocktail. Nonlinear regression analysis of the displacement curves used the equation: log(inhibitor) vs. response - variable slope with Top = 100% and Bottom = 0% Y = 100/(1 + 10^((logIC50-x)*Hillslope)).

[2] = tested on: γ2 subunit containing GABAA receptors; assay: Control of γ2 subunit incorporation with diazepam; assay type: cell-based, rat; conditions: 1 µM
Experimental: For electrophysiological recordings, oocytes were placed on a nylon-grid in a bath of Ca^2+-containing NDE solution medium [96 mM NaCl, 5 mM HEPES-NaOH (pH 7.5), 2 mM KCl, 1 mM MgCl2, 1.8 mM CaCl2]. For current measurements the oocytes were impaled with two microelectrodes (1–3 MΩ resistance) filled with 2 M KCl. […] The EC3–5 was determined at the beginning of each experiment. Drugs were diluted into NDE from DMSO-solutions resulting in a final concentration of 0.1% DMSO perfusing the oocytes. […] Between two applications, oocytes were washed in NDE for up to 15 min to ensure full recovery from desensitization. […] All recordings were performed at room temperature at a holding potential of […] using a Dagan TEV-200A two-electrode voltage clamp (Dagan Corporation, Mineapolis, MN). Data were digitized, recorded and measured using an Axon Digidata- 1550 low-noise data acquisition system (Axon Instruments, Union City, CA).

T2 sequence (P62813 28-455): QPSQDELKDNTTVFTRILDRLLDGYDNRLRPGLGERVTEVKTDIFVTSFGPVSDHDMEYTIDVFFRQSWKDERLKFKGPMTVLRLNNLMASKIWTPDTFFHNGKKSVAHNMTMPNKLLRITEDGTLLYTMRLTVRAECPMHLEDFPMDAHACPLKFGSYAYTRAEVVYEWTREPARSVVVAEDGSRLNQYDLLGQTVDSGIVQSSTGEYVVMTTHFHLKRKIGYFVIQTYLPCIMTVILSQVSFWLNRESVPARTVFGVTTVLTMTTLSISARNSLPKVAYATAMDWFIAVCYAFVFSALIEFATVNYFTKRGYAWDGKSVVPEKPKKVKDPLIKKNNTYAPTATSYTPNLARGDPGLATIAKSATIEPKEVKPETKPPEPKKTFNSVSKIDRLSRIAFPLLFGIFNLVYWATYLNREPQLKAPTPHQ
T2 sequence (P63138 25-474 limits assumed): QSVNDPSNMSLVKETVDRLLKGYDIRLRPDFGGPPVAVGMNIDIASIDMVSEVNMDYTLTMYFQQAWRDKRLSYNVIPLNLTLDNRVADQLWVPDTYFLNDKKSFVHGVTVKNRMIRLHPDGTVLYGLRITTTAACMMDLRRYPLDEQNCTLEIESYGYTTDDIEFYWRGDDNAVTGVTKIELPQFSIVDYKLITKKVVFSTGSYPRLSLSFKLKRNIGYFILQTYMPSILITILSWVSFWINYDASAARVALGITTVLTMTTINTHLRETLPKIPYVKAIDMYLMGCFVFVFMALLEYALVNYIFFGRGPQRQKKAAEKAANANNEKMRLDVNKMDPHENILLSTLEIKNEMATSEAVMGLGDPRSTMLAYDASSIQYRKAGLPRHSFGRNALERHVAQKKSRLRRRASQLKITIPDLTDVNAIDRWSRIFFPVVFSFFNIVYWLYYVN
T3 sequence (P62813 28-455): as the sequence (P62813 28-455) above
T3 sequence (P63079 26-473): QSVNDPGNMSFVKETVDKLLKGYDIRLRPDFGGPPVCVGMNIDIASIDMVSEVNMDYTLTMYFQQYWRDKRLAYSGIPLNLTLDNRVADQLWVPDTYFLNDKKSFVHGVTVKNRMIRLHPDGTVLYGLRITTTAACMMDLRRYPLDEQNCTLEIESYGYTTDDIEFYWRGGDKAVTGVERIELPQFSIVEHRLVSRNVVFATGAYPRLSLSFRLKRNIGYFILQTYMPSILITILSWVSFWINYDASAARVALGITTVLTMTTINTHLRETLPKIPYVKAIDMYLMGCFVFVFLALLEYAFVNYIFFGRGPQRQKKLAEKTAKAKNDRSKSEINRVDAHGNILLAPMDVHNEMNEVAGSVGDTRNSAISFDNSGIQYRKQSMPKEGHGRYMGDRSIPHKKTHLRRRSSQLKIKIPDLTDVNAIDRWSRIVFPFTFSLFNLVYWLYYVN
T1 sequence (P62813 28-455): as the sequence (P62813 28-455) above
T1 sequence (P15431 26-474): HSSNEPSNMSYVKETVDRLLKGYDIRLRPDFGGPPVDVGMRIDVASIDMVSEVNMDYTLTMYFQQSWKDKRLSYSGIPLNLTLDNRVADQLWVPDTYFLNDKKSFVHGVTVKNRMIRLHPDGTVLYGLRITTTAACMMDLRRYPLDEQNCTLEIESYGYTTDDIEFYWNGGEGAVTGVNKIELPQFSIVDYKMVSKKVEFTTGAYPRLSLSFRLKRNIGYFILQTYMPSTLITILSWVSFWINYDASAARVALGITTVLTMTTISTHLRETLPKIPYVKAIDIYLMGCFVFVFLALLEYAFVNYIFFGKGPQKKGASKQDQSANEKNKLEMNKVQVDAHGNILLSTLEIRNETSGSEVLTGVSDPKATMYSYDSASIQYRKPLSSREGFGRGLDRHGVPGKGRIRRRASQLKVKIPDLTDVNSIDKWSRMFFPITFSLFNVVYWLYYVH
T4 sequence (P62813 28-455): as the sequence (P62813 28-455) above
T4 sequence (P15431 26-474 R66N): as the sequence (P15431 26-474) above, with R41N counted along it
T5 sequence (P62813 28-455): as the sequence (P62813 28-455) above
T5 sequence (P63079 26-473 N66R): as the sequence (P63079 26-473) above, with N41R counted along it

COc1ccc2[nH]cc3c(=O)n(-c4ccc(C)cc4)nc-3c2c1 [Compound 5, 8-Methoxy-2-(4-methylphenyl)-2,5-dihydro-3H-pyrazolo[4,3-c]quinolin-3-one]
activity at 0.01 µM (α1β1 GABAA receptors; read-out: efficacy, % of control current (GABA EC3-5 = 100%), 10 nM): 123% | activity at 10 µM (α1β1 GABAA receptors; read-out: efficacy, % of control current (GABA EC3-5 = 100%), 10 µM): 732 ± 141% | activity at 30 µM (α1β1 GABAA receptors; read-out: efficacy, % of control current (GABA EC3-5 = 100%), 30 µM): 637 ± 114% | Hill slope (nH) (α1β1 GABAA receptors): 1.0± 0.5 | EC50 (α1β1 GABAA receptors; co-applied with GABA EC3-5, read-out: EC50): 710 nM | EC50 (α1β2 GABAA receptors): 3740 nM | activity at 0.003 µM (α1β2 GABAA receptors; read-out: efficacy, % of control current (GABA EC3-5 = 100%), α1β2, 3 nM): 100% | activity at 1 µM (α1β2 GABAA receptors; read-out: efficacy, % of control current (GABA EC3-5 = 100%), α1β2, 1 µM): 179 ± 8.3% | activity at 30 µM (α1β2 GABAA receptors; read-out: efficacy, % of control current (GABA EC3-5 = 100%), α1β2, 30 µM): 651 ± 148% | Hill slope (nH) (α1β2 GABAA receptors; α1β2): 2.8±1.7 | activity at 0.01 µM (α1β3 GABAA receptors; read-out: efficacy, % of control current (GABA EC3-5 = 100%), α1β3, 10 nM): 111 ± 5.7% | activity at 0.03 µM (α1β3 GABAA receptors; read-out: efficacy, % of control current (GABA EC3-5 = 100%), α1β3, 30 nM): 115 ± 8.1% | activity at 0.1 µM (α1β3 GABAA receptors; read-out: efficacy, % of control current (GABA EC3-5 = 100%), α1β3, 100 nM): 126 ± 11.5% | activity at 30 µM (α1β3 GABAA receptors; read-out: efficacy, % of control current (GABA EC3-5 = 100%), α1β3, 30 µM): 623 ± 114% | EC50 (α1β3 GABAA receptors; α1β3, co-applied with GABA EC3-5, read-out: EC50): 3490 nM | current as % of control at 0.1 µM (α1β1R41N GABAA receptors; 100nM): 95 ± 20% | current as % of control at 0.3 µM (α1β1R41N GABAA receptors; 300nM): 85 ± 25% | current as % of control at 1 µM (α1β1R41N GABAA receptors; 1μM): 100 ± 30% | current as % of control at 3 µM (α1β1R41N GABAA receptors; 3µM): 120 ± 30% | current as % of control at 10 µM (α1β1R41N GABAA receptors; 10μM): 155 ± 40% | current as % of control at 30 µM (α1β1R41N GABAA receptors; 30μM): 160 ± 40% | EC50 (α1β3N41R GABAA receptors): 2470 nM

CN1C(=O)CN=C(c2ccccc2F)c2cc([N+](=O)[O-])ccc21 [[^3H]flunitrazepam]
Kd [1]: 4.8 ± 0.3 nM

CN1C(=O)CN=C(c2ccccc2)c2cc(Cl)ccc21 [diazepam, Diazepam]
modulation [2]: ~ 200%
